Reference: US11679114B2, “Progestogen-only oral contraception” (Navad Life Sciences Pte, priority 2021, dated 2023)
“And” between values parts separate entries of the source, which are not always exact repeats. Equal entries are not always repeated.

System: healthy, cyclic women
Experiment: Serum FSH, LH, estradiol (E2) and progesterone (P) concentrations during treatment
Type: in vivo, human
Protocol: The tablets prepared in Example 1 were tested in a single-center, open-label, adaptive design study to evaluate the influence on hormonal and ovarian function and vaginal bleeding pattern of different higher dosages of LNG administered once daily for 28 days over two consecutive treatment cycles in healthy, cyclic women.
Subjects started study medication intake on the first day of menstrual bleeding after the pre-treatment cycle. One tablet was taken orally, around the same time every morning, during 56 consecutive days. Study visits were planned every three (±1) days from treatment day 3 (±1) until 27 (±1) and from day 31 (±1) until day 55 (±1). At each visit the diameter of the largest follicle-like structure (FLS) and serum follicle-stimulating hormone (FSH), luteinizing hormone (LH), estradiol (E2) and P concentrations were measured.
If ovulation was observed during treatment, the subsequent luteal phase was evaluated using the Landgren criterion, i.e. the luteal phase was considered adequate when P concentrations were >16 nmol/L during at least 5 days (Landgren et al., “Hormonal effects of the 300 μg norethisterone (NET) minipill. 1. Daily steroid levels in 43 subjects during a pretreatment cycle and during the second month of NET administration,” Contraception 1980; 21: pp. 87-113). TVUS measurements of the diameter of the largest FLS (mean of two directions) were performed using a Voluson E8 Expert device (GE Medical Systems). Serum FSH, LH, E2, P and SHBG concentrations were determined by validated chemiluminescent microparticle immunoassays (Abbott, Longford, Ireland). All pharmacodynamic parameters were evaluated descriptively.

[1] = LNG 0.095 mg per day, BMI ≥ 30 kg/m^2, entire treatment period
[2] = LNG 0.095 mg per day, entire treatment period
[3] = LNG 0.095 mg per day, treatment period 1
[4] = LNG 0.095 mg per day, treatment period 2
[5] = LNG 0.115 mg per day, BMI < 30 kg/m^2, entire treatment period
[6] = LNG 0.115 mg per day, BMI ≥ 30 kg/m^2, entire treatment period
[7] = LNG 0.115 mg per day, entire treatment period
[8] = LNG 0.115 mg per day, treatment period 1
[9] = LNG 0.115 mg per day, treatment period 2
[10] = LNG 0.135 mg per day, BMI < 30 kg/m^2, entire treatment period
[11] = LNG 0.135 mg per day, BMI ≥ 30 kg/m^2, entire treatment period
[12] = LNG 0.135 mg per day, entire treatment period
[13] = LNG 0.135 mg per day, treatment period 1
[14] = LNG 0.135 mg per day, treatment period 2

C#C[C@]1(O)CC[C@H]2[C@@H]3CCC4=CC(=O)CC[C@@H]4[C@H]3CC[C@@]21CC (racemic) [LNG, levonorgestrel]
Maximum E2 concentration, Mean ± SD [1]: 484 ± 277 pmol/L | Mean E2 concentration, Mean ± SD [1]: 190 ± 72 pmol/L | Maximum E2 concentration, Mean ± SD [2]: 660 ± 500 pmol/L | Maximum E2 concentration, Median [2]: 580 pmol/L | Mean E2 concentration, Mean ± SD [2]: 241 pmol/L and 241 ± 130 pmol/L | Mean E2 concentration, Median [2]: 204 pmol/L | Maximum E2 concentration, Mean ± SD [3]: 595 ± 495 pmol/L | Maximum E2 concentration, Median [3]: 362 pmol/L | Mean E2 concentration, Mean ± SD [3]: 289 ± 195 pmol/L | Mean E2 concentration, Median [3]: 231 pmol/L | Maximum E2 concentration, Mean ± SD [4]: 384 ± 304 pmol/L | Maximum E2 concentration, Median [4]: 224 pmol/L | Mean E2 concentration, Mean ± SD [4]: 186 ± 97 pmol/L | Mean E2 concentration, Median [4]: 144 pmol/L | Maximum E2 concentration, Mean ± SD [5]: 611 ± 623 pmol/L | Mean E2 concentration, Mean ± SD [5]: 213 ± 160 pmol/L | Maximum E2 concentration, Mean ± SD [6]: 607 ± 116 pmol/L | Mean E2 concentration, Mean ± SD [6]: 242 ± 66 pmol/L | Maximum E2 concentration, Mean ± SD [7]: 610 ± 559 pmol/L | Maximum E2 concentration, Median [7]: 511 pmol/L | Mean E2 concentration, Mean ± SD [7]: 219 pmol/L and 219 ± 146 pmol/L | Mean E2 concentration, Median [7]: 186 pmol/L | Maximum E2 concentration, Mean ± SD [8]: 563 ± 551 pmol/L | Maximum E2 concentration, Median [8]: 481 pmol/L | Mean E2 concentration, Mean ± SD [8]: 269 ± 217 pmol/L | Mean E2 concentration, Median [8]: 244 pmol/L | Maximum E2 concentration, Mean ± SD [9]: 367 ± 278 pmol/L | Maximum E2 concentration, Median [9]: 215 pmol/L | Mean E2 concentration, Mean ± SD [9]: 170 ± 88 pmol/L | Mean E2 concentration, Median [9]: 146 pmol/L | Maximum E2 concentration, Mean ± SD [10]: 415 ± 244 pmol/L | Mean E2 concentration, Mean ± SD [10]: 178 ± 72 pmol/L | Maximum E2 concentration, Mean ± SD [11]: 421 ± 332 pmol/L | Mean E2 concentration, Mean ± SD [11]: 190 ± 87 pmol/L | Maximum E2 concentration, Mean ± SD [12]: 416 ± 256 pmol/L | Maximum E2 concentration, Median [12]: 279 pmol/L | Mean E2 concentration, Mean ± SD [12]: 180 pmol/L and 180 ± 73 pmol/L | Mean E2 concentration, Median [12]: 144 pmol/L | Maximum E2 concentration, Mean ± SD [13]: 369 ± 245 pmol/L | Maximum E2 concentration, Median [13]: 239 pmol/L | Mean E2 concentration, Mean ± SD [13]: 198 ± 100 pmol/L | Mean E2 concentration, Median [13]: 156 pmol/L | Maximum E2 concentration, Mean ± SD [14]: 302 ± 184 pmol/L | Maximum E2 concentration, Median [14]: 242 pmol/L | Mean E2 concentration, Mean ± SD [14]: 162 ± 62 pmol/L | Mean E2 concentration, Median [14]: 148 pmol/L | Subjects with mean E2 concentrations ≥110 pmol/L (30 pg/mL) (all dosages (0.095, 0.115, 0.135 mg per day)): 80-90% | Mean E2 concentrations in all subjects (all dosages, except in one subject in the 0.115 mg group, 73.4 pmol/L = 20 pg/mL): > 73.4 pmol/L | Individual P concentrations during treatment (all groups, except 2 ovulating subjects (0.095 mg), the subject with abnormal ovulation (0.135 mg) and one other subject): below 5 nmol/L | Individual LH concentrations (all groups, except for an LH peak in one ovulating subject in the 0.095 mg group): below 12.1 IU/L | Mean E2 concentrations in all LNG treatment groups (all treatment groups, 110 pmol/L (30 pg/mL) = lower limit assumed not to lead to accelerated bone loss): above 110 pmol/L | Single P concentration in another subject (first treatment visit, probably a residue from the pre-treatment cycle, dose group not stated): 5.85 nmol/L
